Reference: the NIST ThermoML archive (doi:10.1021/je060271a)
± gives the expanded uncertainty stated by the source.

Settings: 343.15 K, Liquid, Vibrating tube method

Measured: mass density

CCCCCC(=O)OCC(COC(=O)CCCCC)(COC(=O)CCCCC)COC(=O)CCCCC [pentaerythritol tetrahexanoate]
973.3 ± 1.2 kg/m3: 22686 kPa
973.6 ± 1.2 kg/m3: 22744 kPa | 22886 kPa | 22919 kPa | 22946 kPa
973.4 ± 1.2 kg/m3: 22600 kPa | 22626 kPa | 22658 kPa
977.9 ± 1.2 kg/m3: 29446 kPa
974.4 ± 1.2 kg/m3: 24391 kPa
972.9 ± 1.2 kg/m3: 21970 kPa
976.4 ± 1.2 kg/m3: 27113 kPa | 27202 kPa | 27293 kPa | 27351 kPa
975.2 ± 1.2 kg/m3: 25099 kPa | 25191 kPa | 25220 kPa | 25313 kPa | 25349 kPa | 25408 kPa | 25502 kPa | 25532 kPa | 25562 kPa
975.7 ± 1.2 kg/m3: 26108 kPa | 26188 kPa | 26271 kPa | 26330 kPa
976 ± 1.2 kg/m3: 26387 kPa | 26439 kPa | 26524 kPa | 26585 kPa | 26644 kPa
977.3 ± 1.2 kg/m3: 28427 kPa | 28558 kPa
975.8 ± 1.2 kg/m3: 26161 kPa | 26213 kPa | 26245 kPa
977.6 ± 1.2 kg/m3: 29105 kPa | 29132 kPa | 29164 kPa | 29190 kPa | 29216 kPa
977.8 ± 1.2 kg/m3: 29333 kPa | 29473 kPa | 29506 kPa
977.4 ± 1.2 kg/m3: 28583 kPa
973 ± 1.2 kg/m3: 21939 kPa | 21994 kPa
976.5 ± 1.2 kg/m3: 27264 kPa | 27322 kPa | 27385 kPa | 27478 kPa | 27508 kPa
974.9 ± 1.2 kg/m3: 24799 kPa | 24855 kPa | 24888 kPa | 24945 kPa | 24979 kPa | 25008 kPa
978.2 ± 1.2 kg/m3: 29796 kPa | 29886 kPa
977.1 ± 1.2 kg/m3: 28317 kPa | 28372 kPa
974 ± 1.2 kg/m3: 23356 kPa
975.5 ± 1.2 kg/m3: 25724 kPa
975.9 ± 1.2 kg/m3: 26298 kPa | 26356 kPa | 26413 kPa | 26471 kPa | 26498 kPa | 26552 kPa
973.7 ± 1.2 kg/m3: 22858 kPa | 22973 kPa
978.1 ± 1.2 kg/m3: 29763 kPa | 29852 kPa | 29914 kPa
975.4 ± 1.2 kg/m3: 25438 kPa | 25598 kPa | 25628 kPa | 25657 kPa | 25693 kPa
975 ± 1.2 kg/m3: 24917 kPa | 25036 kPa | 25070 kPa | 25128 kPa
974.2 ± 1.2 kg/m3: 23808 kPa | 23832 kPa | 23863 kPa | 23889 kPa
975.3 ± 1.2 kg/m3: 25379 kPa | 25473 kPa
977.5 ± 1.2 kg/m3: 29079 kPa
977.7 ± 1.2 kg/m3: 29248 kPa | 29274 kPa | 29301 kPa
974.7 ± 1.2 kg/m3: 24563 kPa | 24623 kPa | 24738 kPa
977.2 ± 1.2 kg/m3: 28347 kPa | 28396 kPa | 28453 kPa | 28479 kPa | 28503 kPa | 28528 kPa
976.2 ± 1.2 kg/m3: 26906 kPa | 26934 kPa
976.1 ± 1.2 kg/m3: 26612 kPa | 26671 kPa | 26990 kPa | 27051 kPa
974.8 ± 1.2 kg/m3: 24711 kPa | 24766 kPa | 24827 kPa
975.1 ± 1.2 kg/m3: 25162 kPa | 25249 kPa | 25284 kPa
974.6 ± 1.2 kg/m3: 24418 kPa | 24449 kPa | 24476 kPa | 24504 kPa | 24536 kPa | 24590 kPa | 24651 kPa | 24678 kPa
975.6 ± 1.2 kg/m3: 26078 kPa | 26134 kPa
976.3 ± 1.2 kg/m3: 26873 kPa | 26962 kPa | 27023 kPa | 27079 kPa | 27141 kPa | 27174 kPa | 27230 kPa
974.5 ± 1.2 kg/m3: 24332 kPa | 24359 kPa
976.6 ± 1.2 kg/m3: 27414 kPa | 27449 kPa | 27537 kPa | 27572 kPa
973.5 ± 1.2 kg/m3: 22712 kPa | 22771 kPa | 22798 kPa | 22831 kPa
